In ChEMBL document CHEMBL1158238, “New prenylflavones from the leaves of Epimedium saggitatum” (J Nat Prod, 1996):

Tested on: Platelet
Assay: Inhibition of arachidonic acid-induced platelets aggregation by turbidimetry
Type: functional, cell-based

Row | IC50 | Structure (SMILES)
1 | 7.14 µM | C=C(C)C(O)Cc1cc(-c2cc(=O)c3c(O)cc(O)cc3o2)cc2c1OC(C)(C)C=C2 (configuration not stated) [YINYANGHUO A]
2 | 1.67 µM | C=C(C)C(O)Cc1cc(-c2cc(=O)c3c(O)cc(O)cc3o2)cc(CC=C(C)C)c1O (configuration not stated) [YINYANGHUO B]
